Data on 1 substance can be found in US20240131173A1, “PROTACS WITH TRANSCRIPTION FACTOR TARGETING MOIETIES” (Beth Israel Deaconess Medical Center, Inc., priority 2021, published 2024).

The subject of one data set is HeLa cells. In words: Clonal (colony) formation assay. To be noted: HeLa cells. The class given is cell-based, human. How it is done:
For cell growth curve assay, HeLa cells (10, 000/well) in 12-well plate were transfected with individual TF-PROTAC, then the cells were trypsined and the cell number were counted at indicated time. For the clonal formation assay, HeLa cells were transfected with individual TF-PROTAC for 12 hours, followed by further plated into 6-well plate (1,000/well). Three weeks later, the cells were fixed in fixation buffer (acetic acid: methanol=1:7) and stained with 0.4% crystal violet in 20% ethanol. Then clonal number were quantified by Image J software. As various changes can be made in the above-described subject matter without departing from the scope and spirit of the present disclsoure, it is intended that all subject matter contained in the above description, or defined in the appended claims, be interpreted as descriptive and illustrative. Many modifications and variations of the present disclosure are possible in light of the above teachings. Accordingly, the present description is intended to embrace all such alternatives, modifications and variances which fall within the scope of the appended claims.

In the next data set the target is p65 (Homo sapiens, UniProt Q04206). In words: Western blot of p65 in HeLa cells transfected with TF-PROTAC. The class given is cell-based. The arrangement: endogenous in cells; host or cells: HeLa. To be noted: 10 uM MG132. As to the method: Human embryonic kidney 293T (HEK293T) and HeLa cells were maintained in Dulbecco's Modified Eagle's Medium (DMEM) containing 10% fetal bovine serum (FBS), 100 Units/mL of penicillin and 100 μg/mL streptomycin. For ectopic expression of transcription factors, Flag-p65 and HA-E2F1 were transfected into HEK293T cells and harvested for lysis 48 hours after transfection. For TF-PROTACs treatment, HeLa cells in 12-well plate were transfected with individual TF-PROTAC for 12 hours, followed by harvest for western blot analysis. […] For depletion of endogenous VHL E3 ligase, two sgRNA for VHL E3 ligase were synthesized and inserted into lenti-CRISPR-V2 construct 40. The sgVHL lentivirus were generated in HEK293T cells as previously described 41-42 for infection of HeLa cells overnight, followed by selection with puromycin for 72 h.
Cells were lysed in EBC buffer supplemented with protease inhibitors cocktail and phosphatase inhibitors, and the protein concentrations were measured as described above. The lysates (40 ug protein) were then resolved by 10% SDS-PAGE at 130 V for 80 min and immunoblotted with indicated antibodies at 4° C. overnight, washed 4 times with Tris-buffered saline with 0.1% Tween-20 (TBST), incubated with secondary antibody for 1 hour at room temperature, and then washed 4 times with TBST buffer. […]
In general terms: A western blot detects proteins with antibodies after separation by electrophoresis.

p65, sequence (Q04206 whole entry): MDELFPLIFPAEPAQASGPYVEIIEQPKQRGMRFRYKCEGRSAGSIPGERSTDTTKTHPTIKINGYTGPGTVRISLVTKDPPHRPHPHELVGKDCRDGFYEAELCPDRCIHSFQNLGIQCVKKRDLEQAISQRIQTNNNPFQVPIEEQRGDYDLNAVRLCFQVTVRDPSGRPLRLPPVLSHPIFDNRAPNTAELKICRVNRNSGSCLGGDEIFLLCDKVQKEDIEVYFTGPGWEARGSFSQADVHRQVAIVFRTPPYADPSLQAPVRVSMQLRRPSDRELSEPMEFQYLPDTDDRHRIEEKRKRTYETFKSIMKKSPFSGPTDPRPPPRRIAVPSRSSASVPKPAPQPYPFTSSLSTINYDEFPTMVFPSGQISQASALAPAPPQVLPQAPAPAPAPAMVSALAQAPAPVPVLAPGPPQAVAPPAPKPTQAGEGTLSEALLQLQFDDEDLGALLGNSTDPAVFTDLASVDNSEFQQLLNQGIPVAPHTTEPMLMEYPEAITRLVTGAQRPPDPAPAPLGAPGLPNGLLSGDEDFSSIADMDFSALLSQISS
p65, sequence (P19838 1-433 limits assumed, further chain): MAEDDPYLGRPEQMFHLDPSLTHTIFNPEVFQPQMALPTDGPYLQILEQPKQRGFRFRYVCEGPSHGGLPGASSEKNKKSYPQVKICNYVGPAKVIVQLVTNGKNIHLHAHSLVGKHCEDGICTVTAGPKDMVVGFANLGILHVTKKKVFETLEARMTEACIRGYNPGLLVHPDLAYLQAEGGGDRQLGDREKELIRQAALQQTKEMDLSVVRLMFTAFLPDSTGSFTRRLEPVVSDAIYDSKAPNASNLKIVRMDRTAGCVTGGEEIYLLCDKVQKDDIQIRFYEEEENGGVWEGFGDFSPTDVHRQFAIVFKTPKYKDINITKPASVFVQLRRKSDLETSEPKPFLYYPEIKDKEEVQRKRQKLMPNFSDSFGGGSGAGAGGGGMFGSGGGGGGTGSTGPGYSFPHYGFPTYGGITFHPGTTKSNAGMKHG

In the case of “dNF-κB #16 (TGGGGACTTTCCAGTTTCTGGAAAGTCCCCA; decoy; VHL ligand conjugate via PEG3 linker, further chemistry not given here)”, the “tumorigenesis ability (colony formation)” value with HeLa cells is given as “inhibited”. In the data set with p65, the “degradation of endogenous p65 under proteasome inhibitor MG132” value is “blocked the degradation of endogenous p65”.
